# Source: PMC6792352, “Limited Chemical Structural Diversity Found to Modulate Thyroid Hormone Receptor in the Tox21 Chemical Library” (Environmental Health Perspectives, 2019)
# Where a name gives a salt, the structure may show the parent alone.
# Experiment: in vitro
# Details: rat, gh3-tre-luc cells
SMILES,CC50 at 24 h (AC50 (uM) modified / 1000) [µM],other results
O=C(O)c1cc(/N=N/c2ccc(O)c(C(=O)O)c2)ccc1O [Olsalazine sodium],> 50,
CCCCCCCC/C=C\CCCCCCCC(=O)NCc1ccc(O)c(OC)c1 [Olvanil],8.65,
COc1ccc2[nH]c([S+]([O-])Cc3ncc(C)c(OC)c3C)nc2c1 (stereo not drawn) [Omeprazole],> 90,
CNC(=O)CSP(=O)(OC)OC [Omethoate],,"CC50 at 24 h (AC50 (uM) modified / 1000, Tox21_110001=Tox21_300968, viability, 1 nM T3 present, 24 h): > 90 µM"
COc1ccc(/C=N/NC(=O)c2ccncc2)c(C(=O)O)c1OC [Opiniazide],> 50,
C=CC(=C)CC/C=C(\C)CC/C=C(/C)C=O [Orange terpenes],42.9,
C[C@@H]1CN(c2c(F)c(F)c3c(=O)c(C(=O)O)cn(C4CC4)c3c2F)C[C@H](C)N1 [Orbifloxacin],> 50,
CC(C)NCC(O)c1cc(O)cc(O)c1 (stereo not drawn) [Orciprenaline sulfate],> 50,
CCCCCCCCCCC[C@@H](C[C@@H]1OC(=O)[C@H]1CCCCCC)OC(=O)[C@H](CC(C)C)NC=O [Orlistat],> 50,
COc1ccc2c(c1)OC(C)(C)C(c1ccccc1)C2c1ccc(OCCN2CCCC2)cc1 (stereo not drawn) [Ormeloxifene],6.42,
COc1cc(C)c(Cc2cnc(N)nc2N)cc1OC [Ormetoprim],> 50,
Cc1ncc([N+](=O)[O-])n1CC(O)CCl (stereo not drawn) [Ornidazole],> 20,
O=C(O)c1cc(=O)[nH]c(=O)[nH]1 [Orotic acid],> 90,
Nc1ccccc1S(=O)(=O)O [Orthanilic acid],> 90,
O=C(Nc1ccc(O)cc1)c1ccccc1O [Osalmid],> 50,
CCOC(=O)C1=C[C@@H](OC(CC)CC)[C@H](NC(C)=O)[C@@H](N)C1 [Oseltamivir tartrate],> 50,
CCCCCCCCOc1ccccc1C(=O)Nc1ccc(C(=O)OCC[N+](C)(CC)CC)cc1 [Otilonium bromide],22.8,
C[C@@H]1O[C@@H](O[C@H]2C[C@@H](O)[C@]3(CO)[C@H]4[C@H](O)C[C@]5(C)[C@@H](C6=CC(=O)OC6)CC[C@]5(O)[C@@H]4CC[C@]3(O)C2)[C@H](O)[C@H](O)[C@H]1O [Ouabain],> 80,

SMILES,CC50 at 24 h (AC50 (uM) modified / 1000) [µM],other results
C[C@]12CC[C@H]3[C@@H](CCC4=C(O)C(=O)CC[C@@H]43)[C@@H]1CC[C@@H]2OC(=O)CCC1CCCC1 [Oxabolone cipioncate],,"CC50 at 24 h (AC50 (uM) modified / 1000, Tox21_110001=Tox21_112760, viability, 1 nM T3 present, 24 h): > 50 µM"
CC(=O)N1C[C@H](O)C[C@H]1C(=O)O [Oxaceprol],> 50,
O=C1CCCCCCCCCCCCCCCO1 [Oxacycloheptadecan-2-one],> 90,
COCC(=O)N(c1c(C)cccc1C)N1CCOC1=O [Oxadixyl],,"CC50 at 24 h (AC50 (uM) modified / 1000, Tox21_110001=Tox21_301853, viability, 1 nM T3 present, 24 h): > 90 µM"
CCN(CC)CCc1nc(-c2ccccc2)no1 [Oxalamine citrate],> 20,
CC(C)NCC1CCc2cc(CO)c([N+](=O)[O-])cc2N1 (stereo not drawn) [Oxamniquine],> 20,
CNC(=O)O/N=C(\SC)C(=O)N(C)C [Oxamyl],,"CC50 at 24 h (AC50 (uM) modified / 1000, Tox21_110001=Tox21_201731, viability, 1 nM T3 present, 24 h): > 100 µM; CC50 at 24 h (AC50 (uM) modified / 1000, Tox21_110001=Tox21_301156, viability, 1 nM T3 present, 24 h): > 90 µM"
C[N+]1(CC2COC(c3ccccc3)(C3CCCCC3)O2)CCCCC1 (stereo not drawn) [Oxapium iodide],> 50,
O=C(O)CCc1nc(-c2ccccc2)c(-c2ccccc2)o1 [Oxaprozin],> 50,
O=c1[nH]c2ccccc2n1CCCN1CCN(C(c2ccccc2)c2ccccc2)CC1 [Oxatomide],20.3,
O=C1Nc2ccc(Cl)cc2C(c2ccccc2)=NC1O (stereo not drawn) [Oxazepam],> 80,
CCC12COCN1COC2 [Oxazolidine-E],> 90,
CCO/C=C1\N=C(c2ccccc2)OC1=O [Oxazolone],64.5,
NC(=O)N1c2ccccc2CC(=O)c2ccccc21 [Oxcarbazepine],14.5,
CCN(CC)CCOCCOC(=O)C(CC)(CC)c1ccccc1 [Oxeladin citrate],27.1,
CC[C@H]1C[C@H]2[C@@H]3CCC4=CC(=O)CC[C@@H]4[C@H]3CC[C@]2(C)[C@H]1O [Oxendolone],> 50,
CN(C(=O)CN(CCO)CC(=O)N(C)C(C)(C)Cc1ccccc1)C(C)(C)Cc1ccccc1 [Oxethazaine],16.2,
